Results as given in BindingDB's records for doi:10.7270/Q2V69MR5 (n/a, 1993).

Biological target: T1, Neutrophil elastase (Homo sapiens, UniProt P08246)
T1 sequence (P08246 whole entry): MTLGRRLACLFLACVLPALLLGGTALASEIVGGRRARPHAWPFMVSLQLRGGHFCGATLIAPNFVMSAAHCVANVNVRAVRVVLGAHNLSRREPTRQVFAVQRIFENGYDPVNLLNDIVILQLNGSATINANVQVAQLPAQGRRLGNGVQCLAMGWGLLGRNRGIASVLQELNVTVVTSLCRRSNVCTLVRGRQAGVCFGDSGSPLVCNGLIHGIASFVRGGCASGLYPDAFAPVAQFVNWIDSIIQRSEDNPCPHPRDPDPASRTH
Test: Compound was evaluated for the inhibitory activity against Human leukocyte elastase; time-dependent inhibition was not observed
Conditions: read-out: kon (M-1-s-1)

With CC[C@H]1C(=O)N(C(=O)NCc2ccccc2)[C@H]1Oc1ccc(C(=O)O)cc1 the kon was 5.6 M⁻¹ s⁻¹.
